Reference: ChEMBL document CHEMBL1201862, “PubChem BioAssay data set” (2004)
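Five compound concentrations were applied to cells in 96-well plates for 48 hours; endpoints were derived by simple linear interpolation of the resulting dose-response curve. GI50 marks 50% less growth.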 Active and inactive are the calls of the source. No stated cut-off is given here; in the data, active = GI50 up to about 1.1 µM and inactive = higher.

How the values were obtained:
Experiment in all cases: DTP human tumour cell line panel, 48 h
A498 = test system: A498
UACC-257 = test system: UACC-257
HOP-62 = test system: HOP-62
A549 = test system: A549
SK-MEL-5 = test system: SK-MEL-5
U-251 = test system: U-251
HCC 2998 = test system: HCC 2998
OVCAR-5 = test system: OVCAR-5
SNB-19 = test system: SNB-19
KM12 = test system: KM12
SR = test system: SR
IGROV-1 = test system: IGROV-1
OVCAR-3 = test system: OVCAR-3
Malme-3M = test system: Malme-3M
NCI-H460 = test system: NCI-H460
HT-29 = test system: HT-29
CCRF-CEM = test system: CCRF-CEM
K562 = test system: K562

Measured: GI50

CC1(C)CC[C@]2(C(=O)O)CCC3(C)C(=CCC4[C@@]5(C)CC[C@H](OC6OCC(O)C(O)C6OC6OC(CO)C(O)C(O)C6O)C(C)(C)C5CC[C@]43C)C2C1 (stereo partly drawn)
inactive: A498 2.18 µM | UACC-257 2.94 µM | HOP-62 2.09 µM | A549 1.86 µM | SK-MEL-5 3.98 µM | U-251 1.93 µM | HCC 2998 1.71 µM | OVCAR-5 2.41 µM | SNB-19 1.93 µM | KM12 2.24 µM | SR 2.29 µM | IGROV-1 2.67 µM | OVCAR-3 2.12 µM | Malme-3M 1.87 µM | NCI-H460 2.1 µM | HT-29 2.46 µM

CC(Cn1c2c3ccccc3ccc2c2oc(=O)c3ccccc3c21)N(C)C (stereo not drawn)
inactive: UACC-257 > 100 µM | A549 > 100 µM | U-251 > 100 µM | OVCAR-5 > 100 µM | SNB-19 > 100 µM | CCRF-CEM > 100 µM | KM12 > 100 µM | K562 > 100 µM | SR > 100 µM | IGROV-1 > 100 µM | OVCAR-3 > 100 µM | Malme-3M > 100 µM | NCI-H460 > 100 µM | HT-29 > 100 µM

Cc1cc(CC(O)c2ccc(Cl)c(Cl)c2)nc(O)n1 (stereo not drawn)
inactive: A498 53.8 µM | UACC-257 > 100 µM | HOP-62 25.6 µM | A549 21.8 µM | SK-MEL-5 57.4 µM | U-251 29.1 µM | OVCAR-5 69 µM | SNB-19 30.5 µM | CCRF-CEM 48.8 µM | KM12 36.4 µM | K562 50.1 µM | SR 24.7 µM | OVCAR-3 32.2 µM | Malme-3M 81.8 µM | NCI-H460 34.8 µM | HT-29 46.9 µM

COc1ccc(/C=C2\CCCCC2=O)cc1
inactive: A498 > 100 µM | HOP-62 > 100 µM | A549 > 100 µM | SK-MEL-5 > 100 µM | U-251 > 100 µM | CCRF-CEM > 100 µM | K562 > 100 µM | IGROV-1 > 100 µM | OVCAR-3 > 100 µM | NCI-H460 > 100 µM | HT-29 > 100 µM

COC(OC)[C@@H](C)[C@H](O)[C@](C)(O)C1OC(C)(C)OC(C(C)C=C(C)C)C1C (stereo partly drawn)
inactive: A498 > 100 µM | UACC-257 93.1 µM | HOP-62 > 100 µM | A549 > 100 µM | SK-MEL-5 64.9 µM | U-251 > 100 µM | OVCAR-5 > 100 µM | SNB-19 > 100 µM | CCRF-CEM > 100 µM | KM12 > 100 µM | K562 77.1 µM | SR 73.3 µM | IGROV-1 > 100 µM | OVCAR-3 > 100 µM | Malme-3M > 100 µM | NCI-H460 > 100 µM | HT-29 > 100 µM

CCc1cccc(C(C)CC)c1NC(=O)C(=O)C(CC(=O)Nc1ccc(Cl)c(Cl)c1)C(=O)OC (stereo not drawn)
inactive: A498 > 100 µM | UACC-257 > 100 µM | HOP-62 71.1 µM | A549 63.1 µM | U-251 > 100 µM | HCC 2998 93.3 µM | OVCAR-5 > 100 µM | SNB-19 > 100 µM | CCRF-CEM > 100 µM | KM12 41.5 µM | K562 9.79 µM | SR 66.1 µM | IGROV-1 > 100 µM | OVCAR-3 > 100 µM | Malme-3M > 100 µM | NCI-H460 > 100 µM | HT-29 76 µM

Cc1ccc(Nc2nc(-c3ccc(-c4ccc([N+](=O)[O-])cc4)o3)cs2)cc1
inactive: UACC-257 21.5 µM | HOP-62 > 100 µM | A549 52.7 µM | U-251 35 µM | HCC 2998 23.4 µM | OVCAR-5 59 µM | SNB-19 > 100 µM | KM12 52.8 µM | K562 14.2 µM | SR 11.4 µM | IGROV-1 22.7 µM | OVCAR-3 > 100 µM | Malme-3M 65.2 µM | NCI-H460 44 µM | HT-29 28.4 µM

O=C(O)C#CCO
inactive: A498 > 100 µM | UACC-257 > 100 µM | HOP-62 > 100 µM | A549 > 100 µM | SK-MEL-5 > 100 µM | U-251 > 100 µM | OVCAR-5 > 100 µM | SNB-19 > 100 µM | CCRF-CEM > 100 µM | KM12 > 100 µM | K562 > 100 µM | IGROV-1 > 100 µM | OVCAR-3 > 100 µM | Malme-3M > 100 µM | NCI-H460 > 100 µM | HT-29 > 100 µM

COc1ccccc1NC(=O)C(CC(C(=O)Nc1ccccc1OC)/C(C)=N/NC(=O)c1ccccc1O)/C(C)=N/NC(=O)c1ccccc1O (stereo not drawn)
inactive: A498 65 µM | UACC-257 > 100 µM | HOP-62 > 100 µM | A549 82.4 µM | SK-MEL-5 47 µM | U-251 59 µM | HCC 2998 > 100 µM | OVCAR-5 > 100 µM | SNB-19 61.7 µM | CCRF-CEM 33 µM | KM12 > 100 µM | K562 > 100 µM | IGROV-1 > 100 µM | OVCAR-3 54.1 µM | Malme-3M > 100 µM | NCI-H460 57.9 µM | HT-29 > 100 µM

COC(=O)C(c1ccc(OC)cc1)N1C(=O)[C@@H](NC(=O)c2ccccc2)[C@H]1[C@@H](C)O (stereo partly drawn)
inactive: UACC-257 > 100 µM | HOP-62 > 100 µM | A549 > 100 µM | SK-MEL-5 > 100 µM | U-251 > 100 µM | HCC 2998 > 100 µM | SNB-19 > 100 µM | CCRF-CEM > 100 µM | KM12 > 100 µM | K562 > 100 µM | SR > 100 µM | IGROV-1 > 100 µM | OVCAR-3 > 100 µM | Malme-3M > 100 µM | NCI-H460 > 100 µM | HT-29 > 100 µM

CSc1ccc2c(cc1=O)[C@@H](NC(=O)c1ccc(F)cc1)CCc1cc(O)c(O)c(O)c1-2
inactive: A498 > 100 µM | UACC-257 > 100 µM | HOP-62 > 100 µM | A549 > 100 µM | SK-MEL-5 > 100 µM | U-251 > 100 µM | HCC 2998 > 100 µM | OVCAR-5 > 100 µM | SNB-19 > 100 µM | CCRF-CEM 56 µM | KM12 > 100 µM | K562 64.3 µM | IGROV-1 > 100 µM | OVCAR-3 > 100 µM | Malme-3M > 100 µM | NCI-H460 > 100 µM | HT-29 > 100 µM

N=C(N)NS(=O)(=O)c1ccc(NC(=O)c2cccc3c(Nc4ccc(S(=O)(=O)N=C(N)N)cc4)c4ccc(Cl)cc4nc23)cc1
inactive: A498 > 100 µM | UACC-257 77.6 µM | HOP-62 58.6 µM | A549 53 µM | SK-MEL-5 28.6 µM | U-251 37.2 µM | HCC 2998 79.3 µM | OVCAR-5 > 100 µM | SNB-19 48.4 µM | CCRF-CEM 55 µM | KM12 > 100 µM | K562 41.3 µM | IGROV-1 74.8 µM | OVCAR-3 60.5 µM | Malme-3M 64.4 µM | NCI-H460 76.2 µM | HT-29 > 100 µM

COc1cccc(C2c3cc4c(cc3OC(O)(CO)C2C(=O)O)OCO4)c1.COc1cccc(C2c3cc4c(cc3OC3(O)COC(=O)C23)OCO4)c1 (stereo not drawn)
inactive: A498 47.4 µM | UACC-257 41.5 µM | HOP-62 > 100 µM | A549 82.2 µM | SK-MEL-5 67.1 µM | U-251 22.2 µM | HCC 2998 > 100 µM | OVCAR-5 > 100 µM | CCRF-CEM 37.6 µM | KM12 35.7 µM | K562 37.7 µM | SR 38.8 µM | IGROV-1 62.7 µM | OVCAR-3 69.5 µM | Malme-3M > 100 µM | NCI-H460 21.2 µM | HT-29 37.7 µM

Nc1ncnc2c1ncn2CCCC(c1ccccc1)P(=O)(O)O (stereo not drawn)
inactive: A498 63 µM | UACC-257 > 100 µM | A549 > 100 µM | SK-MEL-5 > 100 µM | U-251 > 100 µM | HCC 2998 > 100 µM | OVCAR-5 > 100 µM | SNB-19 > 100 µM | KM12 > 100 µM | SR > 100 µM | IGROV-1 > 100 µM | OVCAR-3 > 100 µM | Malme-3M > 100 µM | NCI-H460 > 100 µM | HT-29 > 100 µM

N#CC(C(=N/NC(N)=S)/C(=N\NC(N)=S)C(C#N)c1ccccc1)c1ccccc1 (stereo not drawn)
inactive: A498 > 10 µM | UACC-257 > 10 µM | HOP-62 > 10 µM | A549 > 10 µM | U-251 > 10 µM | HCC 2998 > 10 µM | OVCAR-5 > 10 µM | SNB-19 > 10 µM | CCRF-CEM > 10 µM | KM12 > 10 µM | K562 > 10 µM | OVCAR-3 > 10 µM | Malme-3M > 10 µM | NCI-H460 > 10 µM | HT-29 > 10 µM

O=[N+]([O-])c1cccc(C2=NN(c3ccccc3)C3c4ccccc4OCC23)c1 (stereo not drawn)
inactive: A498 > 100 µM | UACC-257 > 100 µM | HOP-62 > 100 µM | A549 > 100 µM | U-251 > 100 µM | HCC 2998 > 100 µM | OVCAR-5 > 100 µM | SNB-19 > 100 µM | CCRF-CEM 91 µM | KM12 > 100 µM | K562 75.3 µM | IGROV-1 > 100 µM | OVCAR-3 > 100 µM | Malme-3M > 100 µM | NCI-H460 > 100 µM | HT-29 > 100 µM

O=c1[nH]c2cc([N+](=O)[O-])ccc2nc1/C(=N/Nc1ccccc1)C(O)c1ccccc1Cl (stereo not drawn)
inactive: UACC-257 > 100 µM | HOP-62 62.5 µM | A549 41.9 µM | SK-MEL-5 33 µM | U-251 58.6 µM | HCC 2998 22.3 µM | OVCAR-5 95.5 µM | SNB-19 > 100 µM | CCRF-CEM 33.5 µM | KM12 27.8 µM | K562 42.5 µM | IGROV-1 43.9 µM | OVCAR-3 59.3 µM | Malme-3M 85.3 µM | NCI-H460 49.2 µM | HT-29 46 µM
